# Data published in US9138466B2, “Factor H for transplantation” (Baxter International Inc., priority 2013, dated 2015).
# Values joined by “and” are separate entries in the source; they are usually repeats but may differ in a detail not shown here. Equal entries are not always repeated. Where two headings read alike, the source gives them in different places. Marks after values point to notes of the source that are not given here.
# What was measured:
# Format in all cases: in vivo
# [1] = tested on: collagen antibody-induced arthritis in Balb C mice; test: Mouse CAIA, hind paw volume / footpad swelling (Example 4); set-up: Mean Disease Burden / Hind Limb Volume, Mean Diff. / Total Disease, Mean Diff.: unit not given here; details: for Total Footpad Thickness, Day of Study 8: day 8; for Total Footpad Thickness, Day of Study 11: day 11; for Total Footpad Thickness, Day of Study 12: day 12; for Total Footpad Thickness, Day of Study 13: day 13; for Total Footpad Thickness, Day of Study 15: day 15; for Total Footpad Thickness, Day of Study 19: day 19; for Total Footpad Thickness, Day of Study 22: day 22; for % Disease Suppression: footpad thickness AUC vs vehicle; for Total Disease Burden (AUC): footpad thickness days 8-22, in mL·day
# [2] = tested on: collagen antibody-induced arthritis in Balb C mice; test: Mouse CAIA, clinical score (Example 4); set-up: key to Mean Maximum Clinical Score: scored 0 to 60, sum of 4 limbs
# [3] = tested on: collagen antibody-induced arthritis in Balb C mice; test: Mouse CAIA, histopathology of hind limbs (ankle, H & E) (Example 4)
# [4] = Mouse CAIA, body weight and tolerability (Example 4)
# Method: Balb C mice (n=10 per cohort) were used to determine the efficacy of Factor H (FH) during transplant rejection. The mice were treated with ArthritoMAb (anti-collagen) antibody cocktail (2 mg, i.v.) on day 1, followed 7 days later with an injection of LPS (50 μg, i.p.). On day 8, hind paw volumes were measured for each animal and distributed to various treatment groups.
# Hind paw volumes were measured on day 8, 11, 12, 13, 15, 19 and 22 (endpoint). The age at start date was 7 to 9 weeks. Body weights were measured bi-weekly to the endpoint (Table 4). At the endpoint, tissue samples were processed for histology and submitted to a pathologist for independent analysis. Sampling 1 was performed at the endpoint. The hind limbs were preserved in 10% formalin. Sampling 2 was performed at the endpoint for group 4 animals. Blood was collected by terminal cardiac puncture. The blood was processed for anti-coagulant. The kidneys were additionally preserved in formalin and followed with 70% EtOH. Samples were scored for inflammation, pannus (granulation tissue), cartilage damage, bone resorption and exostosis (Table 5).
# [5] = Dunnett's Multiple Comparison Test, G1 vehicle vs treatment
# [6] = Dunnett's Multiple Comparison Test, vehicle vs treatment
# [7] = Dunn's Multiple Comparison Test, G1 vehicle vs treatment
# [8] = ankle, group mean, score 0 = normal to 5 = severe
# [9] = ankle, individual animal, score 0 = normal to 5 = severe
# [10] = ankle, individual animal, score 0 = normal to 5 = severe, listed as Group 2
smiles,measurement,setting,value
C[C@@H]1C[C@H]2[C@@H]3CCC4=CC(=O)C=C[C@]4(C)[C@@]3(F)[C@@H](O)C[C@]2(C)[C@@]1(O)C(=O)CO [Dexamethasone],Mean Disease Burden,"[1]; AUC of combined footpad volume over baseline, days 8 to 22, group mean, vehicle 1.93",−0.32***
same,"Total Disease, 95% CI of diff",[1]; [5],1.50 to 3.00
same,"Total Disease, Mean Diff.",[1]; [5],2.25
same,"Total Disease, Summary",[1]; [5],*** (***= P < 0.001)
same,"Total Disease, q",[1]; [5],7.36
same,"Hind Limb Volume, 95% CI of diff",[1]; [6],0.09687 to 0.2080
same,"Hind Limb Volume, Mean Diff.",[1]; [6],0.1524
same,"Hind Limb Volume, Summary",[1]; [6],*** (***= P < 0.001)
same,"Hind Limb Volume, q",[1]; [6],6.877
same,"Total Footpad Thickness, Day of Study 8","[1]; group mean, n 10",0.35 mL
same,"Total Footpad Thickness, Day of Study 8",[1]; individual animals (A# 1-10),0.42 mL and 0.39 mL (2×) and 0.37 mL and 0.35 mL and 0.34 mL and 0.33 mL and 0.31 mL (2×) and 0.3 mL
same,"Total Footpad Thickness, Day of Study 11","[1]; group mean, n 10",0.32 mL
same,"Total Footpad Thickness, Day of Study 11",[1]; individual animals (A# 1-10),0.30 mL and 0.34 mL and 0.32 mL (3×) and 0.3 mL (3×) and 0.35 mL and 0.31 mL
same,"Total Footpad Thickness, Day of Study 12","[1]; group mean, n 10",0.34 mL
same,"Total Footpad Thickness, Day of Study 12",[1]; individual animals (A# 1-10),0.34 mL (4×) and 0.28 mL and 0.35 mL and 0.32 mL and 0.31 mL and 0.39 mL and 0.37 mL
same,"Total Footpad Thickness, Day of Study 13","[1]; group mean, n 10",0.33 mL
same,"Total Footpad Thickness, Day of Study 13",[1]; individual animals (A# 1-10),0.31 mL (2×) and 0.3 mL (2×) and 0.36 mL and 0.38 mL (2×) and 0.33 mL and 0.35 mL and 0.29 mL
same,"Total Footpad Thickness, Day of Study 15","[1]; group mean, n 10",0.31 mL
same,"Total Footpad Thickness, Day of Study 15",[1]; individual animals (A# 1-10),0.37 mL and 0.33 mL and 0.29 mL (3×) and 0.38 mL and 0.26 mL and 0.3 mL (2×) and 0.27 mL
same,"Total Footpad Thickness, Day of Study 19","[1]; group mean, n 10",0.34 mL
same,"Total Footpad Thickness, Day of Study 19",[1]; individual animals (A# 1-10),0.35 mL (4×) and 0.28 mL and 0.3 mL and 0.38 mL and 0.37 mL and 0.32 mL and 0.0 mL
same,"Total Footpad Thickness, Day of Study 22","[1]; group mean, n 10",0.31 mL
same,"Total Footpad Thickness, Day of Study 22",[1]; individual animals (A# 1-10),0.39 mL and 0.42 mL and 0.3 mL and 0.32 mL and 0.29 mL (2×) and 0.35 mL (2×) and 0.31 mL and 0.25 mL
same,% Disease Suppression,"[1]; group mean, n 10",116.49%
same,% Disease Suppression,[1]; individual animals (A# 1-10),139.7% and 129.0% and 162.5% and 125.0% and 114.5% and 102.9% and 104.7% and 87.3% and 96.1% and 101.3%
same,Total Disease Burden (AUC),"[1]; group mean, n 10",−0.32
same,Total Disease Burden (AUC),[1]; individual animals (A# 1-10),−0.77 and −0.51 and −1.21 and −0.54 and −0.28 and −0.06 and −0.09 and 0.25 and 0.10 and −0.02
same,Maximum Δ Mean Volume,"[1]; mean combined foot pad volume, day 8 vs median day of maximal swelling, vehicle 0.21",0.03*** ml
same,% Disease Suppression (vs Vehicle),[1]; percent decrease in total disease burden relative to vehicle,116.5%
same,"Clinical Score, Difference in rank sum",[2]; [7],23.95
same,"Clinical Score, Summary",[2]; [7],*** (***= P < 0.001)
same,"Clinical score, Mean","[2]; day 8, group mean n=10",4.00
same,Clinical score,"[2]; day 8, individual animal",5 (2×) and 10 (3×) and 0 (5×)
same,"Clinical score, Mean","[2]; day 11, group mean n=10",0.10
same,Clinical score,"[2]; day 11, individual animal",0 (9×) and 1
same,"Clinical score, Mean","[2]; day 12, group mean n=10",5.70
same,Clinical score,"[2]; day 12, individual animal",0 (3×) and 10 (4×) and 5 (2×) and 7
same,"Clinical score, Mean","[2]; day 13, group mean n=10",6.00
same,Clinical score,"[2]; day 13, individual animal",0 (4×) and 10 (6×)
same,"Clinical score, Mean","[2]; day 15, group mean n=10",0.00
same,Clinical score,"[2]; day 15, individual animal",0
same,"Clinical score, Mean","[2]; day 19, group mean n=10",0.00
same,Clinical score,"[2]; day 19, individual animal",0
same,"Clinical score, Mean","[2]; day 22, group mean n=10",0.00
same,Clinical score,"[2]; day 22, individual animal",0
same,"Day (of Max Clin Score), Mean","[2]; group line 'Mean', day of study",12.00
same,"Max Clin Score, Mean",[2]; group mean n=10,9.20
same,Max Clin Score,[2]; individual animal,5 and 10 (8×) and 7
same,Day (of Max Clin Score),"[2]; individual animal, day of study",8 (4×) and 13 (2×) and 12 (4×)
same,Mean Maximum Clinical Score,"[2]; scored from 0 to 60, sum of 4 limbs, vehicle 45.4",9.2***
same,"Score From H & E, Bone Resorption",[3],0.8 ± 0.9
same,"Cartilage, Difference in rank sum",[3]; [7],9.25
same,"Composite, Difference in rank sum",[3]; [7],14.05
same,"Composite, Summary",[3]; [7],* (*= P < 0.05)
same,"Exostosis, Difference in rank sum",[3]; [7],13.1
same,"Exostosis, Summary",[3]; [7],** (**= P < 0.01)
same,"Inflammation, Difference in rank sum",[3]; [7],14.95
same,"Inflammation, Summary",[3]; [7],** (**= P < 0.01)
same,"Pannus, Difference in rank sum",[3]; [7],11.4
same,Composite Histopathaligy Score,"[3]; ankle, group mean",0.2 ± 0.1
same,"Score From H & E, Cartilage Damage",[3]; [8],0.9 ± 0.8
same,"Score From H & E, Inflammation",[3]; [8],0.3 ± 0.1
same,"Score From H & E, Pannus",[3]; [8],0.1 ± 0.1
same,"Score From H & E, Periosteal Exostotic Changes",[3]; [8],0.9 ± 0.8
same,"Score From H & E, Bone Resorption",[3]; [9],0
same,"Score From H & E, Cartilage Damage",[3]; [9],0
same,"Score From H & E, Periosteal Exostotic Changes",[3]; [9],0
same,"Score From H & E, Inflammation",[3]; [10],0 (9×) and 1
same,"Score From H & E, Pannus",[3]; [10],1 and 0 (9×)
same,Composite Histopathaligy Score,"[3]; ankle, individual animal, listed as Group 2",3 and 0 (8×) and 1
same,Bone Resorption,"[3]; histopathology summary, graded 1-5, vehicle 0.6 ± 0.3",0 ± 0^ns
same,Pannus,"[3]; histopathology summary, graded 1-5, vehicle 1.0 ± 0.3",0.1 ± 0.1^ns
same,Inflammation,"[3]; histopathology summary, graded 1-5, vehicle 2.0 ± 0.5",0.1 ± 0.1
same,Exostosis,"[3]; histopathology summary, graded 1 to 5, vehicle 2.6 ± 0.5",0 ± 0
same,Cartilage Damage,"[3]; histopathology summary, vehicle 0.5 ± 0.2",0 ± 0^ns
same,Composite Score,"[3]; histopathology summary, vehicle 6.7 ± 1.7",0.2 ± 0.1
same,"Body Weight, Wt (g), Mean","[4]; day 1, group mean n=10, before dosing start (day 8)",17.7 g
same,"Body Weight, Wt (g), Mean","[4]; day 5, group mean n=10, before dosing start (day 8)",17.9 g
same,"Body Weight, Wt (g), Mean","[4]; day 8, group mean n=10",16.3 g
same,"Body Weight, Wt (g), Mean","[4]; day 12, group mean n=10",16.8 g
same,"Body Weight, Wt (g), Mean","[4]; day 15, group mean n=10",16.7 g
same,"Body Weight, Wt (g), Mean","[4]; day 19, group mean n=10",16.5 g
same,"Body Weight, Wt (g), Mean","[4]; day 22, group mean n=10",16.5 g
same,Mean Body Weigh at Nadir,"[4]; lowest group mean body weight as % change from day 1, vehicle −8.0%",−7.7%
